In experiment [1] the test system is methicillin-resistant Staphylococcus aureus (DMST20654). The experiment is described as follows: Antimicrobial activity, broth microdilution. The format is cell-based. The following applies: MRSA. The procedure:
(§1) Microorganisms that cause skin infection, such as Staphylococcus aureus (ATTC 25923), Staphylococcus epidermidis (TISTR 517), Cutibacterium acnes (DMST 14916), and methicillin-resistant Staphylococcus aureus (DMST20654),t were selected for this study. The isolated compounds were determined for minimum inhibitory concentration (MIC) and minimum bactericidal concentration (MBC) by a modified broth microdilution method. Briefly, 20 µL of the test samples (dilution series ranging from 2560 to 1.25 µg/mL) was added in wells 1 to 12. Then, 80 µL of media was added into each well. Next, 100 µL of the inoculum (concentration 10^6 CFU/mL) was added in each well. The final concentration of inoculum in each well was 5 × 10^5 CFU/mL. Then, the cultures were incubated follow the conditions. Incubation mixtures showing positive results of inhibitory effect (MIC) were streaked on media agar, and then incubated by following the conditions.

Experiment [2] relates to Staphylococcus aureus (ATTC 25923). Put plainly: Antimicrobial activity, broth microdilution. The following applies: S. aureus. The format is cell-based. The method, then: as §1
Experiment [3] relates to Cutibacterium acnes (DMST 14916). Put plainly: Antimicrobial activity, broth microdilution. In kind it is cell-based. The following applies: C. acnes. The method, then: as §1
(In broth dilution the organism is exposed to a series of concentrations in liquid medium.)

For experiment [4], the system named is Staphylococcus epidermidis (TISTR 517). Put plainly: Antimicrobial activity, broth microdilution. In kind it is cell-based. The following applies: TISTR517, S. epidermidis. The procedure:
as §1

A further experiment concerns the target tyrosinase enzyme. Put plainly: Enzymatic antityrosinase activity, dopachrome method (L-Dopa substrate). The format is biochemical. The following applies: pH 6.8, 25 °C. The procedure: Antityrosinase activity was determined by the dopachrome method. L-dopa was used as the substrate. Oxidation of L-Dopa to dopachrome which, represented by red color, could be detected by visible light at 492 nm. Briefly, 140 µL of phosphate buffer pH 6.8, 20 µL of sample solution (200 µg/mL), and 2 µL of tyrosinase enzyme solution (203.3 unit/mL) were mixed in a 96-well plate at 25 °C for 10 min. Then, 20 µL of L-Dopa (0.85 mM) was added, and optical density (OD) was detected. After incubation at 25 °C for 20 min, OD was detected again. Dimethyl sulfoxide (DMSO) was used as a negative control. […] The percent inhibition of tyrosinase reaction was calculated by the following equation:Tyrosinase inhibition (%) = [1 − (OD492 of sample/OD492 of control)] × 100.

The subject of experiment [5] is B16F1 melanoma cells. Put plainly: Melanin content. The format is cell-based, murine. The following applies: 50 µg/mL, 48 h. The procedure:
(§2) Murine melanoma B16-F1 cells (CLS-400122) were cultured in DMEM or Dulbecco’s modified Eagle medium containing 10% FBS heat-inactivated fetal bovine serum at 37 °C in a humidified atmosphere with 5% CO2. When cells reached 70–80% confluence cell viability, cellular tyrosinase activity and melanin content were measured. First, 3 × 10^5 cells/well were seeded in 12-well plates and allowed to adhere at 37 °C for 12 h. Cells were treated with test samples; control cells were treated with 0.5% DMSO. After 48 h incubation, cells were lysed with RIPA and centrifuged at 14,000 rpm for 20 min (4 °C) in order to separate the supernatant for measurement of tyrosinase activity, and the cell pellet was measured for melanin content. Cell pellets were dissolved with 1M NaOH and incubated at 55 °C for 1 h. Melanin content was calculated by comparison with the standard curve of synthetic melanin at 475 nm.

Experiment [6] deals with B16F1 melanoma cells. The experiment is described as follows: Intracellular antityrosinase activity. The following applies: 50 µg/mL, 48 h. The format is cell-based, murine. The method, then:
as §2, with “The supernatant was collected for determination of protein content by the Bradford method, with bovine serum albumin (BSA) used as a standard. The supernatant of lysate cells and 2 mg/mL L-Dopa” for “Cell pellets”, “added to a 96-well plate” for “dissolved with 1M NaOH”, “25” for “55”, “After that, optical densities were determined at 492 nm. Tyrosinase inhibition” for “Melanin content”, “then calculated.” for “calculated by comparison with the standard curve of synthetic melanin at 475 nm.”

Molecules are shown by their SMILES. Values after ≈ are worked out from the molar mass of the structure shown. Read-outs that look alike come from different tables or passages of the source.

The MBC is the lowest tested concentration that kills the bacteria rather than only halting them. For orientation: MIC means the least concentration at which growth counts as inhibited. On to `CC(C)=CCCC(C)=CCCC(C)=CCc1cc(-c2cc(=O)c3c(O)cc(O)cc3o2)ccc1O` [Compound 1, 3′-Farnesylapigenin], for which the MBC in experiment [1] (read-out: MBC), in experiment [2], in experiment [3] and in experiment [4] was greater than 256 µg/mL throughout. Also, the MIC in experiment [1] (read-out: MIC) is greater than 256 µg/mL; in experiment [2], 256 µg/mL (≈ 539 µM); in experiment [3], greater than 256 µg/mL; in experiment [4] it was 256 µg/mL (≈ 539 µM). For the same compound, the “IC50 on tyrosinase inhibitory activity” value against tyrosinase enzyme is reported as 135.70 ± 1.16 µg/mL (≈ 286 µM).

`CC(C)=CC(O)c1c(-c2cc(O)c(O)cc2O)oc2cc(O)cc(O)c2c1=O` (stereo not shown) [Compound 2, 3-(Hydroxyprenyl) isoetin]: the MBC in experiment [1] (read-out: MBC) is 64 µg/mL (≈ 166 µM); in experiment [2] it was 32 µg/mL (≈ 82.8 µM); in experiment [3], greater than 256 µg/mL; in experiment [4], 32 µg/mL (≈ 82.8 µM). Moreover, the MIC was 16 µg/mL (≈ 41.4 µM) in experiment [1] (read-out: MIC), 16 µg/mL (≈ 41.4 µM) in experiment [2], 128 µg/mL (≈ 331 µM) in experiment [3] and 16 µg/mL (≈ 41.4 µM) in experiment [4]. In addition, on tyrosinase enzyme, the “IC50 on tyrosinase inhibitory activity” value was greater than 200 µg/mL.

`COc1cc(O)c(-c2oc3cc(O)cc(O)c3c(=O)c2CC=C(C)C)cc1O` [Compound 3, 3-Prenyl-5,7,2′,5′-tetrahydroxy-4′-methoxyflavone]: the MBC was 32 µg/mL (≈ 83.3 µM) in experiment [1] (read-out: MBC), 16 µg/mL (≈ 41.6 µM) in experiment [2], greater than 256 µg/mL in experiment [3] and 64 µg/mL (≈ 167 µM) in experiment [4]. Also, the MIC amounted to 4 µg/mL (≈ 10.4 µM) in experiment [1] (read-out: MIC), 4 µg/mL (≈ 10.4 µM) in experiment [2], 128 µg/mL (≈ 333 µM) in experiment [3] and 16 µg/mL (≈ 41.6 µM) in experiment [4]. At tyrosinase enzyme, the “IC50 on tyrosinase inhibitory activity” value is reported as greater than 200 µg/mL.

For the compound `COc1cc([C@@H]2CC(=O)c3c(O)cc(O)cc3O2)ccc1O` [Compound 4, Homoeriodictyol], the MBC in experiment [1] (read-out: MBC) was greater than 256 µg/mL; in experiment [2] it was greater than 256 µg/mL; in experiment [3], greater than 256 µg/mL; in experiment [4], 256 µg/mL (≈ 847 µM). Besides, the MIC in experiment [1] (read-out: MIC) is greater than 256 µg/mL; in experiment [2], 256 µg/mL (≈ 847 µM); in experiment [3], greater than 256 µg/mL; in experiment [4], 128 µg/mL (≈ 423 µM).

Turning to `CC1(C)C=Cc2c(cc3oc4c(c(=O)c3c2O)CC2c3c(c(O)cc(O)c3-4)OC2(C)C)O1` (stereo not shown) [Compound 5, Isocycloartobiloxanthone], the minimum bactericidal concentration (MBC) was 64 µg/mL (≈ 147 µM) in experiment [1] (read-out: MBC), 8 µg/mL (≈ 18.4 µM) in experiment [2], greater than 256 µg/mL in experiment [3] and 8 µg/mL (≈ 18.4 µM) in experiment [4]. Moreover, the MIC in experiment [1] (read-out: MIC) is 16 µg/mL (≈ 36.8 µM); in experiment [2] it was 4 µg/mL (≈ 9.21 µM); in experiment [3], 256 µg/mL (≈ 589 µM); in experiment [4] it was 4 µg/mL (≈ 9.21 µM). In addition, the “IC50 on tyrosinase inhibitory activity” value at tyrosinase enzyme is greater than 200 µg/mL.

With `COc1cc(O)c2c(c1)O[C@H](c1ccc(O)cc1O)CC2=O` [Compound 6, Artocarpanone], in the experiment with B16F1 melanoma cells [5], the “Melanin content (result in words)” value is “could reduce the amount of melanin content”. Also, the MBC was greater than 256 µg/mL in experiment [1] (read-out: MBC), 256 µg/mL (≈ 847 µM) in experiment [2], 64 µg/mL (≈ 212 µM) in experiment [3] and 128 µg/mL (≈ 423 µM) in experiment [4]. In addition, the MIC was 128 µg/mL (≈ 423 µM) in experiment [1] (read-out: MIC), 64 µg/mL (≈ 212 µM) in experiment [2], 32 µg/mL (≈ 106 µM) in experiment [3] and 64 µg/mL (≈ 212 µM) in experiment [4]. The “IC50 on tyrosinase inhibitory activity” value on tyrosinase enzyme was 38.78 ± 1.02 µg/mL (≈ 128 µM). The entries for the “Intracellular antityrosinase activity (result in words)” value with B16F1 melanoma cells [6] and in the experiment on B16F1 melanoma cells [6] (listed as artocarpanone) were “exhibited antityrosinase activity” and “exhibited intracellular antityrosinase activity”, respectively.

For the compound `O=C1C[C@@H](c2ccc(O)cc2)Oc2cc(O)cc(O)c21` [Compound 7, Naringenin], the MBC in experiment [1] (read-out: MBC), in experiment [2], in experiment [3] and in experiment [4] was greater than 256 µg/mL throughout. Moreover, the MIC in experiment [1] (read-out: MIC) is greater than 256 µg/mL; in experiment [2], greater than 256 µg/mL; in experiment [3], greater than 256 µg/mL; in experiment [4], 256 µg/mL (≈ 940 µM). Besides, the “IC50 on tyrosinase inhibitory activity” value against tyrosinase enzyme is recorded as greater than 200 µg/mL.

On to `COc1cc2oc(-c3ccc(O)cc3O)c(CC=C(C)C)c(=O)c2c(O)c1/C=C/C(C)C` [Compound 8, artocarpin], for which the MBC in experiment [1] (read-out: MBC) came out at 2 µg/mL (≈ 4.58 µM); in experiment [2] it was 4 µg/mL (≈ 9.16 µM); in experiment [3], 32 µg/mL (≈ 73.3 µM); in experiment [4], 32 µg/mL (≈ 73.3 µM). Moreover, the minimum inhibitory concentration (MIC) in experiment [1] (read-out: MIC) came to 2 µg/mL (≈ 4.58 µM); in experiment [2], 2 µg/mL (≈ 4.58 µM); in experiment [3] it was 8 µg/mL (≈ 18.3 µM); in experiment [4], 2 µg/mL (≈ 4.58 µM). For the same compound, the “IC50 on tyrosinase inhibitory activity” value on tyrosinase enzyme is given as greater than 200 µg/mL.

On to `Cc1onc(-c2ccccc2)c1C(=O)N[C@@H]1C(=O)N2[C@@H]1SC(C)(C)[C@@H]2C(=O)O` [Oxa, Oxacillin, reference compound], for which the figures for the minimal bactericidal concentration (MBC) in experiment [2], in experiment [3] and in experiment [4] were 0.125 µg/mL (≈ 0.311 µM), 0.5 µg/mL (≈ 1.25 µM) and 0.5 µg/mL (≈ 1.25 µM), respectively. Further, the values for the MIC in experiment [2], in experiment [3] and in experiment [4] were 0.125 µg/mL (≈ 0.311 µM), 0.5 µg/mL (≈ 1.25 µM) and 0.5 µg/mL (≈ 1.25 µM), respectively.

In experiment [1], `CN[C@H](CC(C)C)C(=O)N[C@H]1C(=O)N[C@@H](CC(N)=O)C(=O)N[C@H]2C(=O)N[C@H]3C(=O)N[C@H](C(=O)N[C@H](C(=O)O)c4cc(O)cc(O)c4-c4cc3ccc4O)[C@H](O)c3ccc(c(Cl)c3)Oc3cc2cc(c3O[C@@H]2O[C@H](CO)[C@@H](O)[C@H](O)[C@H]2O[C@H]2C[C@](C)(N)[C@H](O)[C@H](C)O2)Oc2ccc(cc2Cl)[C@H]1O` [Van, Vancomycin, reference compound] gave an MBC of 0.5 µg/mL (≈ 0.345 µM) and an MIC of 0.125 µg/mL (≈ 0.0863 µM).

(Values after publication PMC8746328, “Three New Isoprenylated Flavones from Artocarpus chama Stem and Their Bioactivities” (Molecules, 2021).)
